The numbers were not newly measured in US20160184212A1, “PHOTO-ACTIVATED HYDROGELS” (L'Oreal, priority 2014, published 2016), which cites them from elsewhere.

Consider `O=C1c2ccccc2C(=O)c2cc(S(=O)(=O)[O-])ccc21.[Na+]` [anthraquinone-2-sulfonic acid sodium salt], for which the water solubility result is given as “water soluble”.
